Experimental data from patent publication US20240158446A1, “CYCLIC COMPOUND HAVING SELECTIVE INHIBITORY ACTION ON KRAS OVER HRAS AND NRAS” (CHUGAI SEIYAKU KABUSHIKI KAISHA, priority 2021, published 2024).
*1 amine or outer side, *2 acyl side, *3 side chain or, on linkers, in order; H or OH if unused. Where a SMILES comes first, the peptide text is derived from it. Bridges are numbered along the chain shown (N, C = ends). [ ]: non-standard residue; d: D form. The star is where a group is joined. hPhe(3-Cl-4-CF3) = N[C@@H](CCc1ccc(C(F)(F)F)c(Cl)c1)C(=O)O; X41 = Cc1ccc(C[C@@H](C(=O)[*:2])N(CC2CCCCC2)[*:1])cc1; X20 = Cc1ccc(C[C@@H](C(=O)[*:2])N(CC2CCCC2)[*:1])cc1; NMePhe(4-CF3) = CN[C@@H](Cc1ccc(C(F)(F)F)cc1)C(=O)O; NPrPhe(4-Me) = CCCN[C@@H](Cc1ccc(C)cc1)C(=O)O; NMeGly(cPent) = CN[C@H](C(=O)O)C1CCCC1; NMeD = CN[C@@H](CC(=O)O)C(=O)O; NMeL = CN[C@@H](CC(C)C)C(=O)O; Morpholide = C1CN(*)CCO1; NMeA = CN[C@@H](C)C(=O)O; Ac5c = NC1(C(=O)O)CCCC1; Aze = O=C(O)[C@@H]1CCN1; NEtG = CCNCC(=O)O; Sar = CNCC(=O)O

Tests used:
[1] = biological target: GDP-bound NRAS wild-type protein (Homo sapiens, UniProt P01111); test: Binding to NRAS by surface plasmon resonance (SPR), Single Cycle Kinetics; settings: SPR, GDP-bound NRAS wild-type protein vs GDP-bound KRAS wild-type protein
[2] = biological target: GDP-bound HRAS wild-type protein (Homo sapiens, UniProt P01112); test: Binding to HRAS by surface plasmon resonance (SPR), Single Cycle Kinetics; settings: SPR, GDP-bound HRAS wild-type protein vs GDP-bound KRAS wild-type protein
[3] = biological target: GDP-bound KRAS wild-type protein (Homo sapiens, UniProt P01116); test: Binding to KRAS by surface plasmon resonance (SPR), Single Cycle Kinetics; settings: SPR Single Cycle Kinetics, GDP-bound KRAS wild-type protein, 1:1 binding model; read-out: KRAS KD
Sequence of GDP-bound KRAS wild-type protein (P01116 whole entry): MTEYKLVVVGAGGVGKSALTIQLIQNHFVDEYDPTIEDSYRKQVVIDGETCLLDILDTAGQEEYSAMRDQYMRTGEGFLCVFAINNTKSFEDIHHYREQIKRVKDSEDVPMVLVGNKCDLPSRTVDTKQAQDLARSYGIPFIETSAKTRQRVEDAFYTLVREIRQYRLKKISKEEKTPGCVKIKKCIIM

Sequence of GDP-bound HRAS wild-type protein (P01112 whole entry): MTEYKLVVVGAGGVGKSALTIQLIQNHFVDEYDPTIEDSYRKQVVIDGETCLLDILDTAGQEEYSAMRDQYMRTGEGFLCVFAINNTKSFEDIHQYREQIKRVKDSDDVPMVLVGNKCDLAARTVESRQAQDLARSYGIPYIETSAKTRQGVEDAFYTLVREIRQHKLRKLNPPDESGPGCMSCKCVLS
Sequence of GDP-bound NRAS wild-type protein (P01111 whole entry): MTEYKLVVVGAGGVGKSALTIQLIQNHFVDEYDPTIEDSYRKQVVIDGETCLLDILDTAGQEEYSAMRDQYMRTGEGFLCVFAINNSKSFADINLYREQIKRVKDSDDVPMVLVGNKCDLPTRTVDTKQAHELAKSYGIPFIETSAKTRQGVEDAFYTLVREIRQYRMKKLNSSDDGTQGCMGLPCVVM

Structure (SMILES) | NRAS/KRAS (ratio of KD value for NRAS to KD value for KRAS) [1] | HRAS/KRAS (ratio of KD value for HRAS to KD value for KRAS) [2] | Kd [3] [nM]
CCCN1C(=O)CN(CC)C(=O)CN(C)C(=O)[C@H]([C@@H](C)CC)NC(=O)[C@H](CC(C)C)N(C)C(=O)C[C@@H](C(=O)N2CCOCC2)N(C)C(=O)[C@H](C2CCCC2)N(C)C(=O)C2(CCCC2)NC(=O)[C@@H]2CCCN2C(=O)[C@H](CCc2ccc(C(F)(F)F)c(Cl)c2)NC(=O)CN(C)C(=O)[C@@H]1Cc1ccc(C)cc1 [PP0065] ([NMeL]I[Sar][NEtG][NPrPhe(4-Me)][Sar][hPhe(3-Cl-4-CF3)]P[Ac5c][NMeGly(cPent)][NMeD]-Morpholide; lactam N-11) | C (A compound having a KD ratio of 0.1 or more and less than 3 is denoted as C) | C (A compound having a KD ratio of 0.1 or more and less than 3 is denoted as C) | 0.54
CCCN1C(=O)CN(C)C(=O)CN(C)C(=O)[C@H]([C@@H](C)CC)NC(=O)[C@H](CC(C)C)N(C)C(=O)C[C@@H](C(=O)N2CCOCC2)N(C)C(=O)[C@H](C2CCCC2)N(C)C(=O)C2(CCCC2)NC(=O)[C@@H]2CCCN2C(=O)[C@H](CCc2ccc(C(F)(F)F)c(Cl)c2)NC(=O)CN(CC)C(=O)[C@@H]1Cc1ccc(C)cc1 [PP0066] ([NMeL]I[Sar][Sar][NPrPhe(4-Me)][NEtG][hPhe(3-Cl-4-CF3)]P[Ac5c][NMeGly(cPent)][NMeD]-Morpholide; lactam N-11) | B (a compound having 3 or more and less than 10 is denoted as B) | C (A compound having a KD ratio of 0.1 or more and less than 3 is denoted as C) | 1.4
CCCN1C(=O)CN(CC)C(=O)CN(C)C(=O)[C@H]([C@@H](C)CC)NC(=O)[C@H](CC(C)C)N(C)C(=O)C[C@@H](C(=O)N2CCOCC2)N(C)C(=O)[C@H](C2CCCC2)N(C)C(=O)C2(CCCC2)NC(=O)[C@@H]2CCCN2C(=O)[C@H](CCc2ccc(C(F)(F)F)c(Cl)c2)NC(=O)CN(CC)C(=O)[C@@H]1Cc1ccc(C)cc1 [PP0069] ([NMeL]I[Sar][NEtG][NPrPhe(4-Me)][NEtG][hPhe(3-Cl-4-CF3)]P[Ac5c][NMeGly(cPent)][NMeD]-Morpholide; lactam N-11) | C (A compound having a KD ratio of 0.1 or more and less than 3 is denoted as C) | C (A compound having a KD ratio of 0.1 or more and less than 3 is denoted as C) | 6.9
CC[C@H](C)[C@@H]1NC(=O)[C@H](CC(C)C)N(C)C(=O)C[C@@H](C(=O)N2CCOCC2)N(C)C(=O)[C@H](C2CCCC2)N(C)C(=O)C2(CCCC2)NC(=O)[C@@H]2CCCN2C(=O)[C@H](CCc2ccc(C(F)(F)F)c(Cl)c2)NC(=O)CN(C)C(=O)[C@H](Cc2ccc(C(F)(F)F)cc2)N(C)C(=O)CN(C)C(=O)CN(C)C1=O [PP0076] ([NMeL]I[Sar][Sar][NMePhe(4-CF3)][Sar][hPhe(3-Cl-4-CF3)]P[Ac5c][NMeGly(cPent)][NMeD]-Morpholide; lactam N-11) | C (A compound having a KD ratio of 0.1 or more and less than 3 is denoted as C) | C (A compound having a KD ratio of 0.1 or more and less than 3 is denoted as C) | 0.064
CC[C@H](C)[C@@H]1NC(=O)[C@H](CC(C)C)N(C)C(=O)C[C@@H](C(=O)N2CCOCC2)N(C)C(=O)[C@H](C2CCCC2)N(C)C(=O)C2(CCCC2)NC(=O)[C@@H]2CCCN2C(=O)[C@H](CCc2ccc(C(F)(F)F)c(Cl)c2)NC(=O)CN(C)C(=O)[C@H](Cc2ccc(C)cc2)N(CC2CCCC2)C(=O)[C@@H]2CCN2C(=O)[C@H](C)N(C)C1=O [PP0084] ([NMeL]I[NMeA][Aze][X20][Sar][hPhe(3-Cl-4-CF3)]P[Ac5c][NMeGly(cPent)][NMeD]-Morpholide; lactam N-11) | C (A compound having a KD ratio of 0.1 or more and less than 3 is denoted as C) | B (a compound having 3 or more and less than 10 is denoted as B) | 2.7
CC[C@H](C)[C@@H]1NC(=O)[C@H](CC(C)C)N(C)C(=O)C[C@@H](C(=O)N2CCOCC2)N(C)C(=O)[C@H](C2CCCC2)N(C)C(=O)C2(CCCC2)NC(=O)[C@@H]2CCCN2C(=O)[C@H](CCc2ccc(C(F)(F)F)c(Cl)c2)NC(=O)CN(C)C(=O)[C@H](Cc2ccc(C)cc2)N(CC2CCCCC2)C(=O)[C@@H]2CCN2C(=O)[C@H](C)N(C)C1=O [PP0085] ([NMeL]I[NMeA][Aze][X41][Sar][hPhe(3-Cl-4-CF3)]P[Ac5c][NMeGly(cPent)][NMeD]-Morpholide; lactam N-11) | C (A compound having a KD ratio of 0.1 or more and less than 3 is denoted as C) | C (A compound having a KD ratio of 0.1 or more and less than 3 is denoted as C) | 8.4
